The data set is described as follows: Pharmacokinetics of BI 1356 in patients with type 2 diabetes, multiple oral doses once daily for 12 days. The conditions noted are these: therapeutic oral dose levels; listed as BI 1356.

Entries after “also recorded” stand apart in the source; their conditions may differ.

For `CC#CCn1c(N2CCC[C@@H](N)C2)nc2c1c(=O)n(Cc1nc(C)c3ccccc3n1)c(=O)n2C` [linagliptin], the route of excretion entry was “mainly excreted via the liver; also recorded: primarily excreted unchanged via the bile”.

Source of the values: patent publication US20140343014A1, “COMBINATION OF A CERTAIN DPP-4 INHIBITOR AND VOGLIBOSE” (BOEHRINGER INGELHEIM INTERNATIONAL GMBH, priority 2013, published 2014).
